Where a SMILES comes first, the peptide text is derived from it.
| SMILES | logP |
| --- | --- |
| CC(C)C(=O)NS(=O)(=O)c1ccc(C(F)(F)F)cc1N | 2.56 |
| ClC1CC(Cl)C(Cl)CC1Cl (stereo unspecified) | 2.82 |
| Cc1cc(Cl)ccc1Cl | 3.97 |
| Clc1cc(Cl)cc(-c2c(Cl)cc(Cl)c(Cl)c2Cl)c1 | 7.1 |
| CN(C)CCC[N+]1([O-])c2ccccc2Sc2ccccc21 | 1.9 |
| CCCCCCCC(=O)OC(C(=O)NC1C(=O)N2C(C(=O)O)=C(C)CSC12)c1ccccc1 (stereo unspecified) | 3.54 |
| CC(C)OC(=O)c1cnc2n(c1=O)C(C)CCC2 (stereo unspecified) | 0.99 |
| CCN1CC(C(O)C(CC2CCCCC2)NC(=O)C(Cc2c[nH]cn2)NC(=O)C(Cc2ccc(OC)cc2)NC(=O)C(C)C)OC1=O (stereo unspecified) | 2.85 |
| CC(=O)N(CC(O)CO)c1c(I)c(C(=O)NCCO)c(I)c(C(=O)NCCO)c1I (stereo unspecified) | -1.86 |
| C#CCOc1c(Cl)cc(NC=NOCC#N)cc1Cl | 3 |
| O=[N+]([O-])c1nc(Br)[nH]c1Br | 2.82 |
| CC(C)(C)C(=O)C(C#N)=NNc1cc(C(F)(F)F)cc(C(F)(F)F)c1 | 5.44 |
| CC(=O)NC(Cc1ccccc1)C(=O)NC(CCC(=O)O)C(=O)NC(Cc1ccccc1)C(N)=O (stereo not drawn) (Ac-Phe-Glu-Phe-NH2; configuration not given here) | 0.65 |
| CCC(=O)C(CS(=O)(=O)c1ccccc1)c1ccc(C)cc1 (stereo unspecified) | 2.7 |
| CC1CC2C3CCC4=CC(=O)C=CC4(C)C3(F)C(O)CC2(C)C1(O)C(=O)NC(C)(C)C (stereo unspecified) | 3.2 |
| CC(C)c1cccc(C(C)C)c1N | 3.18 |
| Nc1nc2c(ncn2C2OC(CO)CC2F)c(=O)[nH]1 (stereo unspecified) | -1.18 |
| CC(C)(C)C(COc1ccc(C(F)(F)F)cc1)OC(=O)n1ccnc1 (stereo unspecified) | 4.15 |
| O=[N+]([O-])c1ncn(CC(F)(F)CO)n1 | -0.21 |
| CCN(CC)C(=O)COC(=O)C(C)c1ccc2cc(OC)ccc2c1 (stereo unspecified) | 3.32 |
| O=Cc1ccc(O)c2ncccc12 | 1.63 |
| CSCCC(NC(C)=O)C(=O)NC(C(N)=O)C(C)C (stereo unspecified) | -0.28 |

| SMILES | logP |
| --- | --- |
| COc1cccc(NC(=O)OCCN2CCOCC2)c1 | 2.19 |
| O=S1(=O)NC(C2CCCCC2)=Nc2ccccc21 | 2.2 |
| Clc1cc2c(cc1Cl)Oc1c(Cl)ccc(Cl)c1O2 | 6.39 |
| N#CN=C1NCCN1Cc1cccnc1 | 0.77 |
| CNC(=O)OCc1ccc(Cl)cc1 | 2.42 |
| CN1C(=O)NC(=O)C(=O)C1=O | -1.01 |
| CC1COC(Cn2cncn2)(c2ccc(Oc3ccc(Cl)cc3)cc2Cl)O1 (stereo unspecified) | 4.3 |
| CCC(C)C(=O)OC1CCC=C2C=CC(C)C(CCC(O)CC(O)CC(=O)O)C21 (stereo unspecified) | 3.6 |
| CCCOc1cccc(NC(=O)OCCN2CCOCC2)c1 | 3.04 |
| CNC(=O)N(C)c1nnc(C(C)(C)C)s1 | 1.79 |
| O=C(CCn1cnc([N+](=O)[O-])n1)NCCO | -1.32 |
| CC1NC(=O)C(CC(=O)NC(Cc2cn(C(=O)OCc3ccccc3)c3ccccc23)C(=O)NC(Cc2ccccc2)C(=O)N(C)Cc2ccccc2)NC1=O (stereo unspecified) | 5.66 |
| N#CC(C#N)=NNc1ccccc1C(F)(F)F | 4.2 |
| C#CCCOCn1ccnc1C=NO | 0.67 |
| Cc1n[nH]c(C(=O)N2CCCCC2)c1[N+](=O)[O-] | 0.79 |
| CCCN1CC(NS(=O)(=O)N(CC)CC)C=C2c3cc(O)ccc3CCC21 (stereo unspecified) | 2.63 |
| CN(C)N=Nc1ccc(S(C)(=O)=O)cc1 | 1.59 |
| C#CCOc1c(Cl)cc(NC=NOCCC)cc1Cl | 4 |
| C#CCOc1c(Cl)cc(NC=NOCC(=O)OCC)cc1Cl | 3.6 |
| COCCNC(=O)C(F)(F)Cn1cnc([N+](=O)[O-])n1 | -0.15 |
| S=C=NCCCCc1cccnc1 | 2.7 |
| COP(=O)(OC)O/C(C)=C/C(=O)OC(C)c1ccccc1 (stereo unspecified) | 3.3 |

| SMILES | logP |
| --- | --- |
| CCOC(=O)c1cc(S(N)(=O)=O)c(Cl)cc1NCc1ccco1 | 2.67 |
| CCc1ncc([N+](=O)[O-])n1C | 0.68 |
| COCCOCC1COC(Cn2cncn2)(c2ccc(Cl)cc2Cl)O1 (stereo unspecified) | 2.03 |
| Cc1ccc(C)c(NN=C(C#N)C#N)c1 | 3.08 |
| Cc1cc(O)cc(C)c1O | 1 |
| CS(=O)(=O)c1ccc2ccccc2c1 | 1.74 |
| CN(CO)c1nc(N(C)CO)nc(N(C)CO)n1 | 0.4 |
| COc1cc(S(C)=O)ccc1-c1nc2ccccc2[nH]1 (stereo unspecified) | 2.15 |
| NC(=O)Cc1cccc2cccnc12 | 1.87 |
| CCOC(=O)C(C)Oc1ccc(Oc2cnc3ccccc3n2)cc1 (stereo unspecified) | 3.47 |
| Brc1ccc(Br)c(-c2cc(Br)c(Br)cc2Br)c1 | 7.1 |
| Cc1cccc(C(=O)NN(C(=O)c2ccccc2Cl)C(C)(C)C)c1 | 3.11 |
| COC(=O)Cc1ccc(O)c2ncccc12 | 1.59 |
| O=c1n[n+]([O-])ccn1Cc1ccccc1 | 0.19 |
| Cc1ncc([N+](=O)[O-])n1CCNC(=O)OC1CCCCC1 | 2.01 |
| NC1C2CCC1c1ccccc1C2 (stereo unspecified) | 1.63 |
| CC(=O)c1ccc2c(c1)OCCOCCOCCOCCOCCO2 | -0.05 |
| Cc1ccc(C)c(Cl)c1 | 3.86 |
| c1ccc(Cn2ncnn2)cc1 | 1.03 |
| COc1cccc(OCc2ccccc2CCCN2CCC(O)CC2)c1 | 3.35 |
| CCCC(C)C(=O)OCC1CCC(n2cnc3c(=O)[nH]cnc32)O1 (stereo unspecified) | 1 |
| O=c1nc(N=CN2CCCCC2)ccn1C1OC(CO)C(O)C1O (stereo unspecified) | -0.66 |

| SMILES | logP |
| --- | --- |
| O=[N+]([O-])c1ccc2ccc3cccc4ccc1c2c34 | 5.06 |
| Cn1ccc(=O)c2ccccc21 | 0.44 |
| OC1CCN(CCCc2ccccc2COc2ccc(F)cc2)CC1 | 3.3 |
| Cc1ccc(Cl)c(C)c1 | 3.83 |
| CCN1C(=O)C(=O)c2cccc(OC)c2C1=O | 0.94 |
| CCCC(=O)OC(C(=O)NC1C(=O)N2C(C(=O)O)=C(C)CSC12)c1ccccc1 (stereo unspecified) | 1.89 |
| CCOC(CNC(=O)C1(O)C(C)CC2C3CCC4=CC(=O)C=CC4(C)C3(F)C(O)CC21C)OCC (stereo unspecified) | 2.65 |
| CCCCCOc1ccc(NC(=O)OCCN2CCOCC2)cc1 | 3.96 |
| O=C(O)C(Cc1ccc(F)cc1)n1cccc1 (stereo unspecified) | 2.04 |
| NS(=O)(=O)c1ccc2ccccc2c1 | 1.55 |
| COc1cccc2c1C(=O)c1c(O)c3c(c(O)c1C2=O)CC(O)(C(O)CO)CC3OC1CC(N2CCOCC2C#N)C(O)C(C)O1 (stereo unspecified) | 1.56 |
| CCC(=O)C(CS(=O)(=O)c1ccccc1)c1ccc(Cl)cc1 (stereo unspecified) | 2.69 |
| S=C(N/N=C/c1ccc[nH]1)Nc1ccccc1 | 3.73 |
| COc1ccc2cc(C(C)C(=O)OCC(N)=O)ccc2c1 (stereo unspecified) | 2.06 |
| CCC(=O)C(CS(=O)(=O)c1ccc(C)cc1)c1ccc(OC)cc1 (stereo unspecified) | 2.47 |
| CCOC(=O)c1cccc2c1C(=O)C(=O)N(CC)C2=O | 1.31 |
| N#CCc1ccc(C(=O)O)cc1 | 1.18 |
| CCC(=O)C1(c2cccc(OC(C)=O)c2)CCN(C)CC1 | 1.05 |
| CNCCN(C)S(=O)(=O)c1ccc(CONC(N)=O)c([N+](=O)[O-])c1 | 0.45 |
| Cn1cc(-c2ccccc2)c(=O)c(-c2cccc(C(F)(F)F)c2)c1 | 3.16 |
| CC(C)(C)N(NC(=O)c1ccccc1F)C(=O)c1ccccc1Cl | 2.63 |
| Cc1nnc[nH]1 | -0.55 |

| SMILES | logP |
| --- | --- |
| CC(CCC(N)=O)n1nnc2ccccc21 (stereo unspecified) | 1.15 |
| CSCCNC(=O)C(F)(F)Cn1cnc([N+](=O)[O-])n1 | 0.41 |
| CCN1C(=O)C(=O)c2ccccc2C1=O | 1.13 |
| CCCCNC(=O)c1n[nH]c(C)c1[N+](=O)[O-] | 1.27 |
| Cc1cc(O)c(C)c(C)c1O | 1.69 |
| Cn1c([N+](=O)[O-])cnc1-c1ccc(N)cc1 | 1.06 |
| COc1cc(C)c2c(c1OC)-c1ccc(NCc3ccccc3)c(=O)cc1C(NC(C)=O)CC2 (stereo unspecified) | 3.58 |
| O=Cn1c2c(c3ccccc31)CCNC2 | 0.26 |
| COC(C)(C(=O)O)c1ccccc1 (stereo unspecified) | 1.64 |
| Cc1nc([N+](=O)[O-])cn1C | -0.24 |
| CCC1CC2C3CCC4=CC(=O)CCC4C3CCC2(C)C1C(=O)CF (stereo unspecified) | 4.66 |
| CCCn1cnc2c(NC(C)=O)ncnc21 | 0.09 |
| Cc1ccccc1C(=O)OCC1CCC(n2cnc3c(=O)[nH]cnc32)O1 (stereo unspecified) | 1.02 |
| CCOC(=O)c1ccc(OCC(OC(=S)n2ccnc2)C(C)(C)C)cc1 (stereo unspecified) | 4.77 |
| COc1cc(C)c2c(c1OC)-c1ccc(OC)c(=O)cc1C(NC(=O)c1ccc([N+](=O)[O-])cc1)CC2 (stereo unspecified) | 2.96 |
| Cc1cccc(OC(C)C(=O)NNC(C)C)c1 (stereo unspecified) | 1.88 |
| CCCn1c(=O)c2nc(-c3ccccc3N)[nH]c2n(CCC)c1=O | 3.54 |
| CN(C)Cc1ccc(-c2cccc(Nc3[nH]ccc3[N+](=O)[O-])c2)o1 | 3.1 |
| CC(C)N(C=Nc1ccn(C2OC(CO)C(O)C2O)c(=O)n1)C(C)C (stereo unspecified) | 0.01 |
| CCCCCOc1ccccc1NC(=O)OCCN1CCOCC1 | 3.7 |
| CCN(CC)CCSC(=NO)c1nonc1C | 1.4 |
| O=C(Cc1ccccc1)NCCNCC(O)COCc1ccccc1 (stereo unspecified) | 1.45 |

| SMILES | logP |
| --- | --- |
| CC(C)(C)NCC(O)COCCCc1ccccc1 (stereo unspecified) | 2.58 |
| CN1C(=O)C(=O)C(=O)N(C)C1=O | -0.6 |
| Cc1cc(=O)[nH]c(=O)[nH]1 | -0.77 |
| OCC1CCC(n2cnc3cncnc32)O1 (stereo unspecified) | -0.47 |
| Clc1cc(Cl)c(Cl)c(-c2cc(Cl)c(Cl)cc2Cl)c1 | 7.12 |
| NC(=O)COc1cccc(Cc2cnc(N)nc2N)c1 | 0.28 |
| CC(=O)NC(CC(C)C)C(=O)NC(Cc1ccccc1)C(=O)NC(CCCNC(=N)N)C(N)=O (stereo not drawn) (Ac-Leu-Phe-Arg-NH2; configuration not given here) | -0.12 |
| COc1c(O)cc2c(c1OC)-c1ccc(SC)c(=O)cc1C(NC(C)=O)CC2 (stereo unspecified) | 1.43 |
| CNC(=NC#N)NCCSCc1ncn(COC(=O)C(C)(C)C)c1C | 1.81 |
| Nc1ncc(Cc2ccccc2Cl)c(N)n1 | 2.24 |
| NC(=O)c1cc(-c2ccccc2)nnc1NCCN1CCOCC1 | 1.86 |
| CC(=O)NC(CCC(=O)O)C(N)=O (stereo unspecified) | -2.47 |
| O=C(O)Cc1nn(Cc2nc3cc(Br)ccc3s2)c(=O)c2ccccc12 | 3.35 |
| COCC(Cn1ccnc1[N+](=O)[O-])OC(C)=O (stereo unspecified) | -0.04 |
| N#CC(C#N)=NNc1c(Cl)cccc1Cl | 4.51 |
| Cc1nc(Br)c([N+](=O)[O-])n1C | 0.87 |
| COC(=O)n1cc(F)c(=O)[nH]c1=O | -0.68 |
| C#CCC(O)(c1cccnc1)c1ccc2ccccc2c1 (stereo unspecified) | 2.14 |
| O=[N+]([O-])c1cnc(-c2ccc(F)cc2)[nH]1 | 1.52 |
| COCCCNC(=S)Cn1cnc([N+](=O)[O-])n1 | 0.63 |
| CC(=O)Nc1c(I)c(C(=O)NC(CO)CO)c(I)c(C(=O)NC(CO)CO)c1I | -2.27 |

Source: the OPERA property sets (Mansouri et al. 2018)
